Laboratory results published in patent US8778937B2, “Benzimidazole boronic acid derivatives as PI3 kinase inhibitors” (GlaxoSmithKline LLC, priority 2011, dated 2014).

Tested on: MDA-MB-468
Test: Cell growth inhibition in PTEN-deficient cell line MDA-MB-468, anchorage independent, Alamar Blue
Assay type: cell-based
Settings: Homo sapiens, 144 h, MDA-MB-468, anchorage independent (soft agar), 6 days incubation, read-out: Prolif EC50 (nM) MDA-MB-468
Protocol: Cellular Assays—Cell Growth Inhibition in PTEN-Deficient Cell Line MDA-MB-468
PTEN deficient tumor cell lines (MDA-MB-468) were cultured generally according to instructions supplied by cell culture supplier American Type Culture Collection, Manassas, Va., with 10% fetal bovine serum at 5% CO2 and 37° C. Cells were seeded into either a T-75 or a T-175 flask 3-4 days prior to 96-well assay plating such that the flasks were approximately 70-80% confluent of the time of harvest. Cells were harvested using 0.25% trypsin-EDTA (Invitrogen #25200056). Trypan Blue exclusion staining was used to determine cell number.
Viable cells were plated in clear, flat bottom 96-well plates (BD #353075) under anchorage independent conditions at 2,000-10,000 cells per well depending on the cell line. To generate anchorage independent growth conditions, a 5% agar stock solution in water was made and autoclaved to melt and sterilize. From the 5% agar solution, a 0.6% agar/media+10% fetal bovine serum (FBS) solution was made to generate a bottom agar layer in the plates to prevent cell attachment. Seventy five microliters per well of the 0.6% agar-media solution was added to the plates. After solidification, a cell solution of 266,870 to 1,334,022 cells (depending on the cell line) in 10 ml of 0.3% agar/media+10% FBS was made and 75 μl of the cell/media/agar suspension was added to the plates. After the cell layer solidified, 50 μl of media+10% FBS was added to the top of the cells. A 0.3% Brij 35 (Sigma B4184) solution in media+10% FBS was added to column 12 as a background subtraction control. The cells were incubated overnight at 5% CO2 and 37° C. The next day one plate of cells was processed at the time of compound addition to quantify the starting number of cells (T=0 or T0).
To generate the compound titration plates, 15 μl of a 2 mM or 20 μl of a 20 mM solution of the compound of example 31 was diluted in clear bottom polypropylene 96-well plate (BD #351190) using a 10 point, 3-fold titration or a 20 point 2-fold titration, respectively. Three hundred microliters of media was added to the compound dilutions. Ten microliters per well of the serial dilutions was added to the cells and the plates incubated for 6 days at 5% CO2 and 37° C. The final concentration of DMSO in all wells was 0.15% and the highest final concentration of the compound of example 31 was 3.7 μM or 30.7 μM.
Following the 6-day incubation, 20 μl of Alamar Blue (Invitrogen #DAL1100) was added to the cells, incubated at 5% CO2 and 37° C. for 6 hours and the plates read on a Spectramax (Gemini EM) at 530 nm (excitation) and 590 nm (emission) with the auto cut-off disabled. For analysis of cell growth inhibition dose response curves, the data was plotted as the percent of the DMSO-treated control samples (DMSO samples set to 100%). The cellular response was determined for compounds and control compounds by fitting the concentration response with a 4 parameter curve fit using XLfit software and determining the concentration that inhibits 50% of the Ymax-Ymin window (EC50). The EC50 is the midpoint of active compound effect window (between Ymax plateau and Ymin plateau of compound) and represents the concentration of the compound of example 31 where 50% of its maximal effect is observed. Values from wells containing 0.3% Brij 35 (under anchorage independent conditions) were subtracted from all samples for background correction.
The compounds listed in Table 3 were tested generally according to the assays described herein. Table 3 lists the EC50 values for either an experimental run or an average of two or more experimental runs with the examples shown.

SMILES	EC50
Cc1c(Cn2c(C)nc3c(B(O)O)cc(N4CCOCC4)cc32)cccc1C(F)(F)F [Example 4, (2-methyl-1-(2-methyl-3-(trifluoromethyl)benzyl)-6-morpholino-1H-benzo[d]imidazol-4-yl)boronic acid]	11.1 nM
Cc1c(Cl)cccc1Cn1c(C)nc2c(B(O)O)cc(N3CCOCC3)cc21 [Example 5, (1-(3-chloro-2-methylbenzyl)-2-methyl-6-morpholino-1H-benzo[d]imidazol-4-yl)boronic acid]	6.7 nM
Cc1nc2c(B(O)O)cc(N3CCOCC3)cc2n1Cc1cccc2ccccc12 [Example 6, (2-methyl-6-morpholino-1-(naphthalen-1-ylmethyl)-1H-benzo[d]imidazol-4-yl)boronic acid]	22.3 nM
Cc1cccc(Cn2c(C)nc3c(B(O)O)cc(N4CCOCC4)cc32)c1C [Example 7, (1-(2,3-dimethylbenzyl)-2-methyl-6-morpholino-1H-benzo[d]imidazol-4-yl)boronic acid]	18.3 nM
Cc1nc2c(B(O)O)cc(N3CCOCC3)cc2n1Cc1cccc(Cl)c1Cl [Example 8, (1-(2,3-dichlorobenzyl)-2-methyl-6-morpholino-1H-benzo[d]imidazol-4-yl)boronic acid]	42 nM
Cc1nc2c(B(O)O)cc(N3CCOCC3)cc2n1Cc1cccc2ccsc12 [Example 9]	88.2 nM
Cc1cccc(Cn2c(C)nc3c(B(O)O)cc(N4CCOCC4)cc32)c1 [Example 10, (2-methyl-1-(3-methylbenzyl)-6-morpholino-1H-benzo[d]imidazol-4-yl)boronic acid]	1880 nM
Cc1ccccc1Cn1c(C)nc2c(B(O)O)cc(N3CCOCC3)cc21 [Example 11, (2-methyl-1-(2-methylbenzyl)-6-morpholino-1H-benzo[d]imidazol-4-yl)boronic acid]	1140 nM
Cc1nc2c(B(O)O)cc(N3CCOCC3)cc2n1Cc1ccccc1Cl [Example 12, (1-(2-chlorobenzyl)-2-methyl-6-morpholino-1H-benzo[d]imidazol-4-yl)boronic acid]	3580 nM
Cc1nc2c(B(O)O)cc(N3CCOCC3)cc2n1Cc1cccc(Cl)c1 [Example 13, (1-(3-chlorobenzyl)-2-methyl-6-morpholino-1H-benzo[d]imidazol-4-yl)boronic acid]	246 nM
Cc1c(Cn2cnc3c(B(O)O)cc(N4CCOCC4)cc32)cccc1C(F)(F)F [Example 14, (1-(2-methyl-3-(trifluoromethyl)benzyl)-6-morpholino-1H-benzo[d]imidazol-4-yl)boronic acid]	62.8 nM
Cc1c(Cl)cccc1Cn1cnc2c(B(O)O)cc(N3CCOCC3)cc21 [Example 15, (1-(3-chloro-2-methylbenzyl)-6-morpholino-1H-benzo[d]imidazol-4-yl)boronic acid]	60 nM
Cc1c(Cn2c(CF)nc3c(B(O)O)cc(N4CCOCC4)cc32)cccc1C(F)(F)F [Example 16, (2-(fluoromethyl)-1-(2-methyl-3-(trifluoromethyl)benzyl)-6-morpholino-1H-benzo[d]imidazol-4-yl)boronic acid]	21.5 nM
Cc1c(Cl)cccc1Cn1c(CF)nc2c(B(O)O)cc(N3CCOCC3)cc21 [Example 17, (1-(3-chloro-2-methylbenzyl)-2-(fluoromethyl)-6-morpholino-1H-benzo[d]imidazol-4-yl)boronic acid]	17.8 nM
Cc1c(Cn2c(CO)nc3c(B(O)O)cc(N4CCOCC4)cc32)cccc1C(F)(F)F [Example 18, (2-(hydroxymethyl)-1-(2-methyl-3-(trifluoromethyl)benzyl)-6-morpholino-1H-benzo[d]imidazol-4-yl)boronic acid]	13.5 nM
Cc1c(Cl)cccc1Cn1c(C(F)F)nc2c(B(O)O)cc(N3CCOCC3)cc21 [Example 19, (1-(3-chloro-2-methylbenzyl)-2-(difluoromethyl)-6-morpholino-1H-benzo[d]imidazol-4-yl)boronic acid]	31.5 nM
Cc1c(Cn2c(C(F)F)nc3c(B(O)O)cc(N4CCOCC4)cc32)cccc1C(F)(F)F [Example 20, (2-(difluoromethyl)-1-(2-methyl-3-(trifluoromethyl)benzyl)-6-morpholino-1H-benzo[d]imidazol-4-yl)boronic acid]	39.8 nM
Cc1c(Cl)cccc1Cn1c(C(F)(F)F)nc2c(B(O)O)cc(N3CCOCC3)cc21 [Example 21, (1-(3-chloro-2-methylbenzyl)-6-morpholino-2-(trifluoromethyl)-1H-benzo[d]imidazol-4-yl)boronic acid]	130 nM
Cc1c(Cn2c(C(C)C)nc3c(B(O)O)cc(N4CCOCC4)cc32)cccc1C(F)(F)F [Example 22, (2-isopropyl-1-(2-methyl-3-(trifluoromethyl)benzyl)-6-morpholino-1H-benzo[d]imidazol-4-yl)boronic acid]	161 nM
Cc1c(Cn2c(C3CC3)nc3c(B(O)O)cc(N4CCOCC4)cc32)cccc1C(F)(F)F [Example 23, (2-cyclopropyl-1-(2-methyl-3-(trifluoromethyl)benzyl)-6-morpholino-1H-benzo[d]imidazol-4-yl)boronic acid]	126 nM
